Data as given in patent US20220031680A1, “Donecopride As Neuroprotective Agent In the Treatment of Neurodegenerative Diseases” (priority 2018, published 2022).

Tests used:
[1] = system: rat primary GABAergic neurons under a growth factor deprivation; assay: Survival of GABAergic neurons after growth factor deprivation; assay type: cell-based; conditions: BDNF and GDNF deprivation 96 h
Description: The aim of this study was to investigate the neuroprotective effect of MR33583 (at 4 concentrations) in MSN of striatum survival after growth factor deprivation (BDNF and GDNF deprivation), an in vitro model of Huntington's disease.
Rat MSN of striatum were cultured as described by Ivkovic et al. (1999) J. Neurosci. 19:5409-5419 and Schinelli et al. (1988) J. Neurochem. 50:1900-1907. Briefly pregnant female rats of 15 days gestation were killed using a deep anesthesia with CO2 chamber and a cervical dislocation. Fetuses were collected and immediately placed in ice-cold L15 Leibovitz medium with a 2% penicillin (10,000 U/ml) and streptomycin (10 mg/ml) solution (PS) and 1% bovine serum albumin (BSA). Only a restricted ventral portion of the mesencephalic flexure was used for cell preparation as this is the region of the developing brain rich in MSN cells. These areas were treated for 20 min at 37° C. with a trypsin-EDTA solution at a final concentration of 0.05% trypsin and 0.02% EDTA. […] Viable cells were counted in a Neubauer cytometer using the trypan blue exclusion test. […]
(§1) Test compounds were tested in 96-well plate (n=6 culture wells per condition). The following conditions were assessed: […]
The following read-out was investigated: Analysis of MSNs survival (GAD67 staining, number of GABAergic neurons).

TDP-43 = assay: Cytoplasmic TDP-43 in spinal motor neurons after glutamate injury; assay type: cell-based, rat; conditions: glutamate 5 μM 20 min; highest dose
Description: (§2) Rat spinal cord motor neurons (MNs) were cultured as described by Martinou et al. (1992) Neuron. 8:737-744 and Wang et al. (2013) Hum. Mol. Genet. 22:4706-4719. Briefly, pregnant female rats of 14 days gestation (Rats Wistar; Janvier Labs France) were killed using a deep anesthesia with CO2 chamber and a cervical dislocation. Then, fetuses were removed from the uterus and immediately placed in ice-cold L15 Leibovitz medium with a 2% penicillin (10,000 U/ml) and streptomycin (10 mg/ml) solution (PS) and 1% bovine serum albumin (BSA).
Spinal cords were treated for 20 min at 37° C. with a trypsin-EDTA solution at a final concentration of 0.05% trypsin and 0.02% EDTA. […] Viable cells were counted in a Neubauer cytometer, using the trypan blue exclusion test. […]
as §1
(§3) The following endpoints were automatically assessed: • Analysis of neuron survival (MAP-2 staining, number of neurons), • Analysis of neurite network (MAP-2 staining, total neurite length in μm), • Analysis of neurite network/neurons (neuronal network/number of MAP2 neurons), • Analysis of cytoplasmic TDP-43 in MAP-2 positive neurons (overlapping between MAP-2 and cytoplasmic TDP-43 in μm^2).

[2] = system: spinal motor neurons injured with glutamate; assay: Survival and neurite network of primary spinal motor neurons after glutamate injury; assay type: cell-based, rat; conditions: glutamate 5 μM 20 min
Description: as §2
Spinal cords were treated for 20 min at 37° C. with a trypsin-EDTA solution at a final concentration of 0.05% trypsin and 0.02% EDTA. The dissociation was stopped by addition of Dulbecco's modified Eagle's medium (DMEM) with 4.5 g/I glucose, containing DNAse I grade II (final concentration 0.5 mg/ml) and 10% fetal calf serum (FCS). Cells were mechanically dissociated by three forced passages through the tip of a 10-ml pipette. Cells were then centrifuged at 515×g for 10 min at 4° C. The supernatant was discarded, and the pellet was resuspended in a defined culture medium consisting of Neurobasal medium with a 2% solution of B27 supplement, 2 mmol/I L-glutamine, 2% PS solution, and 10 ng/ml brain-derived neurotrophic factor (BDNF). Viable cells were counted in a Neubauer cytometer, using the trypan blue exclusion test. Cells were seeded at a density of 20,000 per well in 96-well plates precoated with poly-L-lysine and were cultured at 37° C. in an air (95%)-CO2 (5%) incubator.
The medium was changed every 2 days. […]
as §1, §3

COc1cc(N)c(F)cc1C(=O)CCC1CCN(CC2CCCC2)CC1 [MR33583]
concentration with significant neuroprotective effect (survival of GABAergic neurons) [1]: 50 nM
dose reducing the signal of TDP43 in the cytoplasm of spinal motor neurons (TDP-43): 100 nM

COc1cc(N)c(F)cc1C(=O)CCC1CCN(CC2CCCCCC2)CC1 [MR36014]
concentrations significantly improving spinal motor neurons survival ([2]; 24 h): 1 nM
concentrations significantly protecting the neurite network ([2]; spinal motor neurons): 1 nM
ratio neurite network length/number of neurons ([2]; spinal motor neurons): not modified
